Tested on: Rama 27 cells
Experiment: incorporation of [3H] thymidine into the DNA of Rama 27 cells (growth promoting / mitogenic assay)
Format: cell-based
Conditions: Rama 27 rat mammary fibroblast cell line
Method: The growth promoting activity of different milk types was determined by precipitating caseins and assaying the supernatants for their ability to stimulate the incorporation of [3H] thymidine into the DNA of Rama 27 cells by known methodology (Smith et al, 1984).
The protein fractions A,B,C, of the casein digest where assayed for their ability to stimulate the incorporation of [3H] thymidine into the DNA of Rama 27 cells exactly as described previously.
In table 1, * indicates one unit of activity is defined as the amount of protein required to produce half maximal stimulation compared with 1% FCS when added to R27 cells.

Substance: PDGF
- growth promoting activity (incorporation of 3H-thymidine into DNA): not significantly stimulated
